{
  "source": "patent US6462089B1",
  "about": "“Method for correcting the vigilance disorders associated with myopathies” (priority 2000, dated 2002)",
  "key": {"c-fos proto-oncogene": {"test_system": "c-fos proto-oncogene", "settings": "cats, awakening doses; Lin et al. PNAS 1996; cited from earlier work"}, "[1]": {"test_system": "patients suffering from Steinert's disease (myotonic dystrophy)", "settings": "cited from earlier work"}, "[2]": {"test_system": "patients suffering from Steinert's disease", "experiment": "Karolinska KSS somnolence scale in patients suffering from Steinert's disease", "type": "in vivo, human", "from_the_text": "In the second patient of this series, the telling morphotype and a myotony of both hands associated with muscular deficiency existed. Without treatment, diurnal hypersomnia was very pronounced (Epworth scale: 16)."}, "dopamine": {"test_system": "dopamine", "settings": "within the dose ranges which modify consciousness; cited from earlier work"}, "[3]": {"test_system": "patient suffering from Steinert's disease", "experiment": "Epworth somnolence scale in a patient suffering from Steinert's disease", "type": "in vivo, human", "settings": "score before treatment 20", "protocol": "By way of example, in a patient suffering from Steinert's disease, which is characterized, inter alia, by a temporal atrophy, ptosis, a myotony associated with muscle weakness, behavioural disorders and somnolence (the start of which went back to 1988) with sleep paralyses, without hypnogogic hallucinations or attacks of cataplexy, a decrease was observed of 18 units on the Epworth somnolence scale (see Johns M. W. Sleep, 1991, 14, 540) after treatment with an oral dose of 100 mg per day of modafinil for six months, between February 1999 (score on the Epworth scale=20) and August 1999 (score on the Epworth scale=2)."}, "[4]": {"test_system": "patients suffering from myotonic dystrophy", "experiment": "Oral modafinil treatment of a series of patients with myotonic dystrophy and diurnal hypersomnia, subjective effect", "type": "in vivo, human", "settings": "oral doses of between 100 and 400 mg/day; majority of patients"}, "[5]": {"settings": "cited from earlier work"}},
  "data": [
    {"compound": "C[C@H](N)Cc1ccccc1", "note": "[d-amphetamine]", "values": [
      {"measurement": "expression of c-fos proto-oncogene in the central dopaminergic projection zones (including the cortex)", "setting": "c-fos proto-oncogene", "result": "highly expressed"}
    ]},
    {"compound": "COC(=O)C(c1ccccc1)C1CCCCN1", "note": "(stereo not shown) [methylphenidate]", "values": [
      {"measurement": "level of consciousness", "setting": "[1]; Van der Meché et al. 1986", "result": "improvement in the level of consciousness was observed"},
      {"measurement": "expression of c-fos proto-oncogene in the central dopaminergic projection zones (including the cortex)", "setting": "c-fos proto-oncogene", "result": "highly expressed"}
    ]},
    {"compound": "NC(=O)C[S+]([O-])C(c1ccccc1)c1ccccc1", "note": "(stereo not shown) [modafinil, benzhydrylsulphinylacetamide]", "values": [
      {"measurement": "personal and professional daily life", "setting": "[2]; patient, dose 200 mg/day", "result": "considerable improvement"},
      {"measurement": "somnolence score on the Karolinska KSS scale after treatment", "setting": "[2]; patient, dose 200 mg/day, before: 8", "result": 2},
      {"measurement": "diurnal somnolence attacks", "setting": "[2]; second patient, dose 600 mg/day", "result": "partial resolution"},
      {"measurement": "somnolence score on the Karolinska scale after treatment", "setting": "[2]; second patient, dose 600 mg/day, before: 8", "result": 4},
      {"measurement": "effect on dopamine", "setting": "dopamine", "result": "no effect"},
      {"measurement": "score on the Epworth scale after treatment", "setting": "[3]; oral dose of 100 mg per day for six months (August 1999)", "result": 2},
      {"measurement": "decrease on the Epworth somnolence scale", "setting": "[3]; oral dose of 100 mg per day for six months", "result": 18, "unit": "units"},
      {"measurement": "expression of c-fos proto-oncogene in the central dopaminergic projection zones (including the cortex)", "setting": "c-fos proto-oncogene", "result": "not expressed"},
      {"measurement": "effect of treatment on vigilance disorders and diurnal somnolence", "setting": "[4]", "result": "subjectively effective"},
      {"measurement": "generalization of the effects with amphetamine", "setting": "[5]; addictive substance discrimination tests", "result": "very weak"},
      {"measurement": "self-administration and preference of place", "setting": "[5]; in vivo", "result": "leads neither to self-administration nor to preference of place"},
      {"measurement": "self-administration of cocaine", "setting": "[5]; in vivo", "result": "does not modify"}
    ]},
    {"compound": "C#CCN(C)[C@H](C)Cc1ccccc1", "note": "[selegiline]", "values": [
      {"measurement": "effectiveness on diurnal hypersomnolence", "setting": "[1]; dose of 20 mg/day, Antonini et al. 1997", "result": "ineffective"}
    ]}
  ]
}
